System: male ICR mice
Assay: 55° C. tail flick test for antinociception
Assay type: in vivo
Protocol: The mouse anti-nociception tests were conducted with male ICR mice weighing 25-35 grams using the 55° C. tail flick test. A baseline latency was taken for each mouse. Then the mice were injected with drug and tested for antinociception at various times post-injection. A ten second cut off point was used to avoid tissue damage. The percent of antinociception was calculated as ((Test latency-Control Latency)/(10-Control Latency))×100. The majority of the drugs were tested at varying dosages.
Note the in the nomenclature used in Table 2, the D-threonine residues are indicated at “t,” the “L-Ser” indicate the isomer of serine and not a second leucine, and the sugars are indicated in parenthesis at their site of attachment. The molecules have been tested for anti-nociception in the […] animal model using the standard tail flick assay. The molecules were tested for binding to the opioid receptors and for analgesic effect delivered either to the brain (ICV) or to the bloodstream (IV). Table 2 is appended to the end of this specification.

CN1CC[C@]23c4c5ccc(O)c4O[C@H]2[C@@H](O)C=C[C@H]3[C@H]1C5 [Morphine]
IV (Mouse) (delivered to the bloodstream (i.v.)): 6.3 µmol/kg
ICV (Mouse) IC50 (delivered to the brain (i.c.v.)): 2.7 nmol
